Assay results published in patent publication US10285382B2 (priority 2017, dated 2019).
“And” between values parts separate entries of the source, which are not always exact repeats. Identical values can stand only once. Like-named read-outs stand apart in the source and are kept apart here.

Test system: eggs
[1] = 4 day delta: Day 4 DHP+ versus Day 4 DHP−
[2] = 5 day delta: Day 5 DHP+ versus Day 5 DHP−
[3] = 6 day delta: Day 6 DHP+ versus Day 6 DHP−
[4] = Day 4 DHP+, summary over replicates stored 4 days
[5] = Day 5 DHP+, summary over replicates stored 5 days
[6] = Day 6 DHP+, summary over replicates stored 6 days
[7] = Day 7 DHP+, summary over replicates stored 7 days
[8] = Day 7 Delta: Day 7 DHP+ versus Day 7 DHP−
[9] = Delta: Avg. Trtd versus Avg. Untrd, all storage times
[10] = an additional day (five days) of DHP gas treatment, vs untreated
[11] = eggs treated four days, vs untreated
[12] = seven day storage, vs untreated
[13] = with DHP gas, Mean / Avg. Trtd of 22 replicates, storage 4 to 7 days
[14] = with DHP gas, egg storage 4 days, single replicates of 90 eggs
[15] = with DHP gas, egg storage 5 days, single replicates of 90 eggs
[16] = with DHP gas, egg storage 6 days, single replicates of 90 eggs
[17] = with DHP gas, egg storage 7 days, single replicates of 90 eggs
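Note: paired egg replicates incubated to hatching under standard commercial conditions, then each category scored at hatch as percent of eggs in the replicate.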

Description: A total of 22 replicates of 90 eggs each of age matched, flock matched eggs are stored prior to incubation for 4 to 7 days in an on-site egg room at about 20° C. […] The paired replicates are then incubated to hatching under standard commercial conditions. At hatching, the following parameters are assessed and recorded: Total Hatchability (%), Fertile Hatchability (%), % Infertile, Early dead (%), Mid dead (%), Late dead (%), Cracked (%), Contaminated (%), Live pip (%), Dead pip (%), Cull dead chick (%), Chick Weight (g), Chick A (%), and Chick B (%).

With `OO` [DHP, dry hydrogen peroxide] the “% Infertile, delta” value [1] was 0.64%, the “Chick A, delta” value [1] was 0.14% and the “Chick B, delta” value [1] was −0.14%. For the same molecule, the “Chick Weight, delta” value [1] was 0.89 g, the “Cont, delta” value [1] was 0.00% and the “Crack, delta” value [1] was 0.32%. The “Cull dead cks, delta” value [1] was 0.00%, the “Dead pip, delta” value [1] was −0.16% and the “Early dead, delta” value [1] was −0.33%. The “Fertile Hatchability, delta” value [1] was 0.12%, the “Late dead, delta” value [1] was −0.64% and the “Live pip, delta” value [1] was 0.63%. For the same molecule, the “Mid dead, delta” value [1] was 0.16%, the “Total Hatchability, delta” value [1] was −0.64% and the “% Infertile, delta” value [2] was 1.84%. The “Chick A, delta” value [2] was 1.73%, the “Chick B, delta” value [2] was −1.73% and the “Chick Weight, delta” value [2] was 0.85 g. The “Cont, delta” value [2] was 0.00%, the “Crack, delta” value [2] was −0.19% and the “Cull dead cks, delta” value [2] was 0.00%. For the same molecule, the “Dead pip, delta” value [2] was −0.37%, the “Early dead, delta” value [2] was −1.70% and the “Fertile Hatchability, delta” value [2] was 3.20%. The “Late dead, delta” value [2] was −2.05%, the “Live pip, delta” value [2] was 0.37% and the “Mid dead, delta” value [2] was 0.74%. The “Total Hatchability, delta” value [2] was 1.36%, the “% Infertile, delta” value [3] was 0.94% and the “Chick A, delta” value [3] was −0.57%. For the same molecule, the “Chick B, delta” value [3] was 0.57%, the “Chick Weight, delta” value [3] was 0.49 g and the “Cont, delta” value [3] was 0.00%. The “Crack, delta” value [3] was 0.00%, the “Cull dead cks, delta” value [3] was −0.48% and the “Dead pip, delta” value [3] was −0.48%. The “Early dead, delta” value [3] was −2.77%, the “Fertile Hatchability, delta” value [3] was 4.67% and the “Late dead, delta” value [3] was −0.82%. For the same molecule, the “Live pip, delta” value [3] was −0.16%, the “Mid dead, delta” value [3] was 0.48% and the “Total Hatchability, delta” value [3] was 2.96%. For the same molecule, the “% Infertile” value [4] was 2.39%, the “Chick A” value [4] was 96.98% and the “Chick B” value [4] was 3.02%. The “Chick Weight” value [4] was 44.69 g, the Cont [4] was 0.00% and the Crack [4] was 0.48%. For the same molecule, the Cull dead cks [4] was 0.00%, the Dead pip [4] was 0.16% and the Early dead [4] was 4.12%. For the same molecule, the “Fertile Hatchability” value [4] was 92.21%, the Late dead [4] was 1.74% and the Live pip [4] was 0.95%. For the same molecule, the Mid dead [4] was 0.16%, the “Total Hatchability” value [4] was 89.99% and the “% Infertile” value [5] was 4.44%. For the same molecule, the “Chick A” value [5] was 98.37%, the “Chick B” value [5] was 1.64% and the “Chick Weight” value [5] was 44.29 g. It also gave a Cont [5] of 0.00%, a Crack [5] of 0.00% and a Cull dead cks [5] of 0.00%. The Dead pip [5] was 0.00%, the Early dead [5] was 1.85% and the “Fertile Hatchability” value [5] was 95.33%. It also gave a Late dead [5] of 1.11%, a Live pip [5] of 0.56% and a Mid dead [5] of 0.93%. The “Total Hatchability” value [5] was 91.11%, the “% Infertile” value [6] was 2.22% and the “Chick A” value [6] was 96.88%. The “Chick B” value [6] was 3.12%, the “Chick Weight” value [6] was 44.30 g and the Cont [6] was 0.00%. The Crack [6] was 0.00%, the Cull dead cks [6] was 0.00% and the Dead pip [6] was 0.00%. For the same molecule, the Early dead [6] was 2.70%, the “Fertile Hatchability” value [6] was 94.14% and the Late dead [6] was 2.06%. The Live pip [6] was 0.16%, the Mid dead [6] was 0.79% and the “Total Hatchability” value [6] was 92.06%. The “% Infertile” value [7] was 0.56%, the “Chick A” value [7] was 97.06% and the “Chick B” value [7] was 2.94%. The “Chick Weight” value [7] was 44.68 g, the Cont [7] was 0.00% and the Crack [7] was 0.00%. For the same molecule, the Cull dead cks [7] was 0.56%, the Dead pip [7] was 0.00% and the Early dead [7] was 1.11%. For the same molecule, the “Fertile Hatchability” value [7] was 94.98%, the Late dead [7] was 1.67% and the Live pip [7] was 1.11%. The Mid dead [7] was 0.56%, the “Total Hatchability” value [7] was 94.44% and the “% Infertile, delta” value [8] was 0.00%. For the same molecule, the “Chick A, delta” value [8] was −1.17%, the “Chick B, delta” value [8] was 1.17% and the “Chick Weight, delta” value [8] was 1.10 g. For the same molecule, the “Cont, delta” value [8] was −0.56%, the “Crack, delta” value [8] was 0.00% and the “Cull dead cks, delta” value [8] was 0.56%. For the same molecule, the “Dead pip, delta” value [8] was 0.00%, the “Early dead, delta” value [8] was −2.78% and the “Fertile Hatchability, delta” value [8] was 0.56%. For the same molecule, the “Late dead, delta” value [8] was 0.55%, the “Live pip, delta” value [8] was 1.11% and the “Mid dead, delta” value [8] was 0.56%. For the same molecule, the “Total Hatchability, delta” value [8] was 0.56%, the “% Infertile, delta” value [9] was 1.00% and the “Chick A, delta” value [9] was 0.23%. For the same molecule, the “Chick B, delta” value [9] was −0.23%, the “Chick Weight, delta” value [9] was 0.77 g and the “Cont, delta” value [9] was −0.05%. The “Crack, delta” value [9] was 0.05%, the “Cull dead cks, delta” value [9] was −0.10% and the “Dead pip, delta” value [9] was −0.30%. The “Early dead, delta” value [9] was −1.70%, the “Fertile Hatchability, delta” value [9] was 2.45% and the “Late dead, delta” value [9] was −0.97%. For the same molecule, the “Live pip, delta” value [9] was 0.35%, the “Mid dead, delta” value [9] was 0.45% and the “Total Hatchability, delta” value [9] was 1.16%. For the same molecule, the “increase in fertile hatchability” value [10] was 3.2%, the “increase in total hatchability” value [10] was 1.3% and the increased weight [10] was 0.85 grams. The “DHP gas treated eggs observed to be contaminated” value (at day 7) was “none”, the “decrease in number of early deaths” value (death during incubation, vs untreated) was “about 1.7%” and the “change in fertile hatchability” value [11] was 0.12%. For the same molecule, the “change in total hatchability” value [11] was −0.64%, the increased weight [11] was 0.89 g and the “increase of fertile hatchability” value [12] was 0.56%. The “increase of total hatchability” value [12] was 0.56%, the increased weight [12] was 1.10 grams and the “increase of fertile hatchability” value (six days, vs untreated) was 4.67%. For the same molecule, the “increase of total hatchability” value (six days, vs untreated) was 2.96%, the increased weight (six days, vs untreated) was 0.49 grams and the mid cycle deaths (vs untreated) was “decreased”. For the same molecule, the “number of live pip eggs” value (vs untreated) was “increases”, the “improvement in number of A grade chicks” value (vs untreated eggs) was 0.23% and the “increase of average chick weight” value (vs untreated eggs, on-site storage 4 to 7 days at about 20° C.) was 0.77 grams. The “increase of average chick weight” value (vs untreated eggs, on-site storage 4 to 7 days, listed as DHP gas) was 1.7% and 1.8%, the “% Infertile” value [13] was 2.73% and the “Chick A” value [13] was 97.34%. The “Chick B” value [13] was 2.66%, the “Chick Weight” value [13] was 44.46 g and the Cont [13] was 0.00%. It also gave a Crack [13] of 0.15%, a Cull dead cks [13] of 0.05% and a Dead pip [13] of 0.05%. For the same molecule, the Early dead [13] was 2.78%, the “Fertile Hatchability” value [13] was 93.93% and the Late dead [13] was 1.67%. For the same molecule, the Live pip [13] was 0.61%, the Mid dead [13] was 0.61% and the “Total Hatchability” value [13] was 91.36%. The Cont [14] was 0.00%, the Crack [14] was 0.00% (5×) and 1.11% and 2.22% and the Cull dead [14] was 0.00%. For the same molecule, the Dead pip [14] was 0.00% (6×) and 1.11%, the Live pip [14] was 1.11% (2×) and 0.00% (4×) and 4.44% and the Mid dead [14] was 0.00% (6×) and 1.11%. For the same molecule, the Cont [15] was 0.00%, the Crack [15] was 0.00% and the Cull dead [15] was 0.00%. For the same molecule, the Dead pip [15] was 0.00%, the Early dead [15] was 2.22% (2×) and 1.11% (3×) and 3.33% and the Late dead [15] was 0.00% (3×) and 2.22% (3×). For the same molecule, the Live pip [15] was 0.00% (4×) and 1.11% and 2.22%, the Mid dead [15] was 0.00% (2×) and 1.11% (3×) and 2.22% and the Cont [16] was 0.00%. For the same molecule, the Crack [16] was 0.00%, the Cull dead [16] was 0.00% and the Dead pip [16] was 0.00%. The Early dead [16] was 2.22% (5×) and 3.33% and 4.44%, the Live pip [16] was 0.00% (6×) and 1.11% and the Mid dead [16] was 1.11% (3×) and 0.00% (3×) and 2.22%. For the same molecule, the “% Infer” value [17] was 1.11% and 0.00%, the “Chick A” value [17] was 96.47% and 97.65% and the “Chick B” value [17] was 3.53% and 2.35%. For the same molecule, the “Chick Weight” value [17] was 44.94 g and 44.41 g, the Cont [17] was 0.00% and the Crack [17] was 0.00%. The Cull dead [17] was 1.11% and 0.00%, the Dead pip [17] was 0.00% and the Early dead [17] was 1.11%. For the same molecule, the “Fertile Hatchblty” value [17] was 95.51% and 94.44%, the Late dead [17] was 2.22% and 1.11% and the Live pip [17] was 0.00% and 2.22%. For the same molecule, the Mid dead [17] was 0.00% and 1.11% and the “Total Hatchblty” value [17] was 94.44%.
